Measured values: PubChem BioAssay AID248 (DTP/NCI, 2004)
Several values for one entry are separate records, joined by “and”; a condition that tells them apart may be missing. Equal values may be shown once. Toxic doses and inconclusive results are not listed. No stated cut-off is given here; in the data, active means T/C of 150% or more; inactive means T/C below 125%.

Test system: L1210 leukemia ip in BDF1 mice, survival T/C
Assay: NCI In Vivo Anticancer Drug Screen. Data for tumor model L1210 Leukemia (intraperitoneal) in B6D2F1 (BDF1) mice
Conditions: endpoint: mean survival time, higher = longer survival
Outline: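 Each compound was tested against a transplantable tumor grown in mice. The endpoint was survival, with treated animals benchmarked against vehicle controls as a simple ratio.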

[1] = dose: 100.0 mg/kg/injection, schedule: Q01DX001 (ip), vehicle: saline
[2] = dose: 200.0 mg/kg/injection, schedule: Q01DX001 (ip), vehicle: saline
[3] = dose: 400.0 mg/kg/injection, schedule: Q01DX001 (ip), vehicle: saline
[4] = dose: 100.0 mg/kg/injection, schedule: Q01DX009 (ip), vehicle: saline with Tween-80
[5] = dose: 200.0 mg/kg/injection, schedule: Q01DX009 (ip), vehicle: saline with Tween-80
[6] = dose: 400.0 mg/kg/injection, schedule: Q01DX009 (ip), vehicle: saline with Tween-80
[7] = dose: 100.0 mg/kg/injection, schedule: Q04DX003 (ip), vehicle: saline with Tween-80
[8] = dose: 200.0 mg/kg/injection, schedule: Q04DX003 (ip), vehicle: saline with Tween-80
[9] = dose: 50.0 mg/kg/injection, schedule: Q01DX009 (ip), vehicle: acetone
[10] = dose: 100.0 mg/kg/injection, schedule: Q01DX009 (ip), vehicle: acetone
[11] = dose: 100.0 mg/kg/injection, schedule: Q01DX001 (ip), vehicle: carboxymethylcellulose (CMC)
[12] = dose: 200.0 mg/kg/injection, schedule: Q01DX001 (ip), vehicle: carboxymethylcellulose (CMC)

Measured: T/C

[Cl][Pt][Cl].c1ccc([PH+](c2ccccc2)C2CCCCC2)cc1.c1ccc([PH+](c2ccccc2)C2CCCCC2)cc1
inactive: dose: 6.25 mg/kg/injection, schedule: Q04DX003 (ip), vehicle: water 96 % of control | dose: 12.5 mg/kg/injection, schedule: Q04DX003 (ip), vehicle: water 98 % of control | dose: 25.0 mg/kg/injection, schedule: Q04DX003 (ip), vehicle: water 96 % of control | dose: 50.0 mg/kg/injection, schedule: Q04DX003 (ip), vehicle: water 98 % of control

CCO/C(=C\C(=O)c1ccccc1)c1ccccc1
inactive: dose: 50.0 mg/kg/injection, schedule: Q01DX009 (ip), vehicle: saline sonified 92 % of control | dose: 100.0 mg/kg/injection, schedule: Q01DX009 (ip), vehicle: saline sonified 95 % of control | dose: 200.0 mg/kg/injection, schedule: Q01DX009 (ip), vehicle: saline sonified 94 % of control

CC1(C)N=C(N)N=C(N)N1c1ccc(OCC(=O)Nc2cccc(S(=O)(=O)F)c2)cc1
inactive: [1] 105 % of control | [2] 91 % of control | [3] 107 % of control

O=[N+]([O-])c1cccc2ncsc12
inactive: dose: 100.0 mg/kg/injection, schedule: Q01DX009 (ip), vehicle: other 104 % of control | dose: 200.0 mg/kg/injection, schedule: Q01DX009 (ip), vehicle: other 107 % of control | dose: 400.0 mg/kg/injection, schedule: Q01DX009 (ip), vehicle: other 104 % of control

C=CCN(CC=C)/N=N/c1[nH]ncc1C(=O)OCC
inactive: dose: 100.0 mg/kg/injection, schedule: Q01DX001 (ip), vehicle: saline with Tween-80 100 % of control | [4] 106 % of control | dose: 200.0 mg/kg/injection, schedule: Q01DX001 (ip), vehicle: saline with Tween-80 92 % of control | [5] 100 % of control | dose: 400.0 mg/kg/injection, schedule: Q01DX001 (ip), vehicle: saline with Tween-80 101 % of control | [6] 104 % of control

CCCCCCCCOC(=O)C1=NC=NC1=[N+]=[N-]
inactive: dose: 5.0 mg/kg/injection, schedule: Q01DX001 (ip), vehicle: other 107 % of control | dose: 10.0 mg/kg/injection, schedule: Q01DX001 (ip), vehicle: other 110 % of control | dose: 20.0 mg/kg/injection, schedule: Q01DX001 (ip), vehicle: other 104 % of control | dose: 40.0 mg/kg/injection, schedule: Q01DX001 (ip), vehicle: other 101 % of control

COc1cc2c(c(OC)c1OC)c(=O)c1ccccc1n2C
inactive: dose: 50.0 mg/kg/injection, schedule: Q01DX Z (ip), vehicle: carboxymethylcellulose (CMC) 97 % of control | dose: 100.0 mg/kg/injection, schedule: Q01DX Z (ip), vehicle: carboxymethylcellulose (CMC) 103 % of control | dose: 200.0 mg/kg/injection, schedule: Q01DX Z (ip), vehicle: carboxymethylcellulose (CMC) 101 % of control

c1ccc(-c2ccc([Si](c3ccc(-c4ccccc4)cc3)(c3ccc(-c4ccccc4)cc3)c3ccc(-c4ccccc4)cc3)cc2)cc1
inactive: dose: 12.5 mg/kg/injection, schedule: Q01DX009 (ip), vehicle: gum acacia 95 % of control | dose: 12.5 mg/kg/injection, schedule: Q04DX003 (ip), vehicle: gum acacia 106 % of control | dose: 25.0 mg/kg/injection, schedule: Q01DX009 (ip), vehicle: gum acacia 100 % of control | dose: 25.0 mg/kg/injection, schedule: Q04DX003 (ip), vehicle: gum acacia 95 % of control | dose: 50.0 mg/kg/injection, schedule: Q01DX009 (ip), vehicle: gum acacia 86 % of control | dose: 50.0 mg/kg/injection, schedule: Q04DX003 (ip), vehicle: gum acacia 92 % of control

Oc1ccccc1CNCc1ccccc1O
inactive: dose: 75.0 mg/kg/injection, schedule: Q01DX001 (ip), vehicle: saline 96 % of control | dose: 150.0 mg/kg/injection, schedule: Q01DX001 (ip), vehicle: saline 96 % of control

CC(CN1c2ccccc2Sc2ccccc21)[N+](C)(C)C (centres undefined)
inactive: [1] 88 % of control

CC(C)CC(CC(C)C)NCC(C)OC(=O)c1ccc([N+](=O)[O-])cc1 (centres undefined)
inactive: dose: 100.0 mg/kg/injection, schedule: Q01DX009 (ip), vehicle: water 93 % of control | dose: 100.0 mg/kg/injection, schedule: Q04DX003 (ip), vehicle: water 98 % of control | dose: 200.0 mg/kg/injection, schedule: Q01DX009 (ip), vehicle: water 88 % of control | dose: 200.0 mg/kg/injection, schedule: Q04DX003 (ip), vehicle: water 98 % of control | dose: 400.0 mg/kg/injection, schedule: Q01DX009 (ip), vehicle: water 86 % of control | dose: 400.0 mg/kg/injection, schedule: Q04DX003 (ip), vehicle: water 96 % of control

COc1ccc(C2C=CC(c3ccccc3)C(c3ccccc3)C2[N+](=O)[O-])cc1OC (centres undefined)
inactive: [7] 96 % of control | [8] 94 % of control | dose: 400.0 mg/kg/injection, schedule: Q04DX003 (ip), vehicle: saline with Tween-80 104 % of control

O=C(O)c1ccccc1[N+](=O)[O-].[Ag]
inactive: dose: 12.5 mg/kg/injection, schedule: Q04DX003 (ip), vehicle: saline with Tween-80 90 % of control | dose: 25.0 mg/kg/injection, schedule: Q04DX003 (ip), vehicle: saline with Tween-80 107 % of control | dose: 50.0 mg/kg/injection, schedule: Q04DX003 (ip), vehicle: saline with Tween-80 91 % of control

CC(=Nc1ccccc1)NO
inactive: [9] 94 % of control | [10] 97 % of control | dose: 100.0 mg/kg/injection, schedule: Q04DX003 (ip), vehicle: saline 96 % of control | dose: 200.0 mg/kg/injection, schedule: Q01DX009 (ip), vehicle: acetone 100 % of control | dose: 200.0 mg/kg/injection, schedule: Q04DX003 (ip), vehicle: saline 108 % of control | dose: 400.0 mg/kg/injection, schedule: Q04DX003 (ip), vehicle: saline 96 % of control

C=CCOc1ccccc1OC
inactive: dose: 50.0 mg/kg/injection, schedule: Q01DX009 (ip), vehicle: saline with Tween-80 96 % of control | [4] 100 % of control | [7] 103 % of control | [5] 95 % of control | [8] 112 % of control

CCOC(=O)c1ccc(NCC2=Nc3c(N)nc(N)nc3NC2)cc1
inactive: dose: 3.0 mg/kg/injection, schedule: Q01DX009 (ip), vehicle: Klucel (hydroxypropylcellulose) (HPC) 92 % of control | dose: 6.0 mg/kg/injection, schedule: Q01DX009 (ip), vehicle: Klucel (hydroxypropylcellulose) (HPC) 97 % of control | dose: 12.0 mg/kg/injection, schedule: Q01DX009 (ip), vehicle: Klucel (hydroxypropylcellulose) (HPC) 101 % of control and 108 % of control | dose: 25.0 mg/kg/injection, schedule: Q01DX009 (ip), vehicle: Klucel (hydroxypropylcellulose) (HPC) 97 % of control | dose: 50.0 mg/kg/injection, schedule: Q01DX009 (ip), vehicle: Klucel (hydroxypropylcellulose) (HPC) 90 % of control | dose: 100.0 mg/kg/injection, schedule: Q01DX009 (ip), vehicle: Klucel (hydroxypropylcellulose) (HPC) 89 % of control

O=C(O)CCCCCCC(=O)OCC(=O)c1ccc(-c2ccccc2)cc1
inactive: [1] 94 % of control | [2] 91 % of control | [3] 91 % of control

O=C(Nc1ccc(Cl)c(Cl)c1)Nc1ccc(Cl)cc1O
inactive: [11] 100 % of control | [12] 96 % of control | dose: 400.0 mg/kg/injection, schedule: Q01DX001 (ip), vehicle: carboxymethylcellulose (CMC) 96 % of control

Nc1nc(N)c(N=O)c(Nc2ccc(I)cc2)n1
inactive: dose: 40.0 mg/kg/injection, schedule: Q01DX Z (ip), vehicle: carboxymethylcellulose (CMC) 102 % of control | [9] 108 % of control | dose: 50.0 mg/kg/injection, schedule: Q04DX003 (ip), vehicle: carboxymethylcellulose (CMC) 109 % of control | dose: 60.0 mg/kg/injection, schedule: Q01DX Z (ip), vehicle: carboxymethylcellulose (CMC) 104 % of control | dose: 90.0 mg/kg/injection, schedule: Q01DX Z (ip), vehicle: carboxymethylcellulose (CMC) 88 % of control | [11] 101 % of control | [10] 106 % of control | dose: 100.0 mg/kg/injection, schedule: Q04DX003 (ip), vehicle: carboxymethylcellulose (CMC) 106 % of control | dose: 135.0 mg/kg/injection, schedule: Q01DX Z (ip), vehicle: carboxymethylcellulose (CMC) 89 % of control | [12] 101 % of control | dose: 200.0 mg/kg/injection, schedule: Q04DX003 (ip), vehicle: carboxymethylcellulose (CMC) 96 % of control

CCCCC(=O)Nc1cccc(O)c1
inactive: [4] 90 % of control | [5] 93 % of control | [6] 107 % of control
